# Literature values in US20080305171A1, “PYRROLOPYRAZINE, FORMULATIONS, METHODS OF MANUFACTURE, AND METHODS OF USE THERE” (priority 2007, published 2008).
# Conditions: ethanol:phosphate buffer solution, increasing temperature and pH
smiles,measurement,value
"CN1CCN(C(=O)OC2c3nccnc3C(=O)N2c2ccc(Cl)cn2)CC1 (racemic) [COMPOUND II, 6-(5-chloro-2-pyridyl)-5-[(4-methyl-1-piperazinyl)carbonyloxy]-7-oxo-6,7-dihydro-5H-pyrrolo[3,4-b]pyrazine]",chemical and isomeric stability in solution,both degrades and racemizes
